From patent publication US8377983B2, “Benzazole derivatives, compositions, and methods of use as aurora kinase inhibitors” (TransTech Pharma, Inc., priority 2006, dated 2013)
Each block holds one compound with its values, some of them ahead of it.

Assays:
[1] = tested on: human MiaPaCa-2 pancreatic xenografts; experiment: MiaPaCa-2 xenograft model, Example 88 alone and in combination with erlotinib; format: in vivo, athymic mice; conditions: for Median Tumor Size: Example 88 10 mg/kg i.p. b.i.d. 10 days, erlotinib 50 mg/kg p.o. daily 14 days; for complete responders (CR, 100% reduction in tumor size) / partial responders (PR, greater than 50% reduction in tumor size): day 42, out of 8 mice, 10 mg/kg
Protocol: (§1) Compounds were dosed on the following schedules:
2) Erlotinib was dosed 50 mg/kg, p.o., daily for 14 days (days 1-14).
Mice-bearing sc tumors were randomized, and treatment groups consisted of 8 mice.

[2] = tested on: HCT-116, BxPC-3, A549, BT-549, LNCaP, MIA Paca-2 tumor cells; experiment: In vitro cell proliferation (alamarBlue); format: cell-based; conditions: Homo sapiens; 96 hr incubation; read-out: IC50 against at least one of HCT-116, MIA Paca-2, or LNCaP cells
Protocol: Compounds are tested for their ability to inhibit cell proliferation and viability. The metabolic reduction of alamarBlue™ (Biosource cat. no. DAL1100) was used to measure cell viability.
The anti-proliferative activity of compounds is studied using a panel of tumor cells: HCT-116 (human colorectal carcinoma cell line), BxPC-3 (human pancreatic adenocarcinoma cell line), A549 (human lung carcinoma cell line), BT-549 (human breast carcinoma cell line), LNCaP (human prostate carcinoma cell line), and MIA Paca-2 (human pancreatic carcinoma cell line). These adherent cells (1,000-20,000) are plated in complete media (RPMI-1640, DMEM, F12K, or McCoy's 5A) containing 10% fetal bovine serum (Gibco) in tissue culture treated 96-well plates (Costar) and placed in a humidified incubator at 37° C., […], 5% CO2 for 18-24 hr. Media was removed and replaced with 90 μL fresh media. Compound is diluted in media containing 3% DMSO and added to cells. Background (C^−) relative fluorescent units are determined by incubating alamarBlue™ reagent for 6 hr using untreated cells plated 18 hr earlier. Untreated cells or cells containing compound are incubated for 96 hr. During the last 6 hr of the incubation period, alamarBlue™ reagent (10 μL) was added to each well and incubated in a humidified incubator at 37° C., […], 5% CO2.
AlamarBlue™ reduction is measured in a fluorescence plate reader with instrument settings for excitation at 530 nm and emission at 590 nm. […] Compound IC50 values are determined from % inhibition versus compound concentration curve plots using GraphPad Prism™ according to the 4 parameter logistic equation Y=Bottom+(Top−Bottom)/1+10^((Log EC50−X)*HillSlope)).

[3] = tested on: human MiaPaCa-2 pancreatic xenografts; experiment: MiaPaCa-2 xenograft model, Example 88 alone and in combination with gemcitabine; format: in vivo, athymic mice; conditions: for Median Tumor Size: Example 88 10 mg/kg i.p. b.i.d. 10 days, gemcitabine 120 mg/kg i.p. q3d×4
Protocol: as §1
2) Gemcitabine was dosed 120 mg/kg, i.p., q3d×4 (days 1, 4, 7, 10).
Drug treatment started when mean tumor sizes reached approximately 120 mg (day 8). Mice-bearing sc tumors were randomized, and treatment groups consisted of 8 mice. The median tumor size for each group at various points in the study are listed below in Table B.

[4] = day 8 of study (treatment start)
[5] = day 42, out of 8 mice, Example 88 10 mg/kg, gemcitabine 120 mg/kg

SMILES: C#Cc1cccc(Nc2ncnc3cc(OCCOC)c(OCCOC)cc23)c1 [Erlotinib, erlotinib, reference compound]
Median Tumor Size [1, 4]: 120 mg
Median Tumor Size ([1]; day 10 of study): 144 mg
Median Tumor Size ([1]; day 13 of study): 192 mg
Median Tumor Size ([1]; day 16 of study): 267 mg
Median Tumor Size ([1]; day 20 of study): 363 mg
inhibition of tumor growth relative to vehicle-treated tumors ([1]; day 23, Example 88 10 mg/kg, erlotinib 50 mg/kg): 16%
Median Tumor Size ([1]; day 23 of study): 507 mg
Median Tumor Size ([1]; day 27 of study): 700 mg
Median Tumor Size ([1]; day 30 of study): 908 mg
Median Tumor Size ([1]; day 34 of study): 1224 mg
Median Tumor Size ([1]; day 37 of study): 1296 mg
complete responders (CR, 100% reduction in tumor size) ([1]; erlotinib 50 mg/kg): 0/8
partial responders (PR, greater than 50% reduction in tumor size) ([1]; erlotinib 50 mg/kg): 0/8
Median Tumor Size ([1]; day 42 of study): 1368 mg

IC50 [2]: ≤ 3000 nM
SMILES: CC(C)c1ccccc1Nc1nc2cc(C(=O)Nc3ccc4cn[nH]c4c3)ccc2[nH]1 [Example 27, 2-(2-Isopropylphenylamino)-3H-benzimidazole-5-carboxylic acid (1H-indazol-6-yl)-amide]

IC50 [2]: ≤ 3000 nM
SMILES: O=C(Nc1ccc2cn[nH]c2c1)c1ccc2[nH]c(Nc3ccccc3C(F)(F)F)nc2c1 [Example 35, 2-(2-Trifluoromethylphenylamino)-3H-benzimidazole-5-carboxylic acid (1H-indazol-6-yl)-amide]

IC50 [2]: ≤ 3000 nM
SMILES: Cc1cccnc1Nc1nc2cc(C(=O)Nc3ccc4cn[nH]c4c3)ccc2[nH]1 [Example 36, 2-(3-Methylpyridin-2-ylamino)-3H-benzimidazole-5-carboxylic acid(1H-indazol-6-yl)-amide]

IC50 [2]: ≤ 3000 nM
SMILES: CC(C)c1ccccc1Nc1nc2cc(C(=O)Nc3ccc4cn[nH]c4c3)c(N3CCN(C)CC3)cc2[nH]1 [Example 48, 2-(2-Isopropylphenylamino)-6-(4-methyl-piperazin-1-yl)-1H-benzimidazole-5-carboxylic acid (1H-indazol-6-yl)-amide]

IC50 [2]: ≤ 3000 nM
SMILES: CN1CCN(c2cc3[nH]c(Nc4ccccc4C(F)(F)F)nc3cc2C(=O)Nc2ccc3cn[nH]c3c2)CC1 [Example 50, 6-(4-Methylpiperazin-1-yl)-2-(2-trifluoromethyl-phenylamino)-1H-benzimidazole-5-carboxylic acid (1H-indazol-6-yl)-amide]

IC50 [2]: ≤ 3000 nM
SMILES: O=C(Nc1ccc2cn[nH]c2c1)c1cc2nc(Nc3ccccc3C(F)(F)F)[nH]c2cc1N1CCOCC1 [Example 54, 6-Morpholin-4-yl-2-(2-trifluoromethylphenylamino)-1H-benzimidazole-5-carboxylic acid (1H-indazol-6-yl)-amide]

IC50 [2]: ≤ 3000 nM
SMILES: O=C(Nc1ccc2cn[nH]c2c1)c1cc2nc(Nc3ccccc3C(F)(F)F)[nH]c2cc1N1CCCCC1 [Example 57, 6-Piperidin-1-yl-2-(2-trifluoromethyl-phenylamino)-1H-benzimidazole-5-carboxylic acid (1H-indazol-6-yl)-amide]

IC50 [2]: ≤ 3000 nM
SMILES: Cc1cccnc1Nc1nc2cc(C(=O)Nc3ccc4cn[nH]c4c3)c(N3CCN(C)CC3)cc2[nH]1 [Example 58, 6-(4-Methyl-piperazin-1-yl)-2-(3-methyl-pyridin-2-ylamino)-1H-benzimidazole-5-carboxylic acid (1H-indazol-6-yl)-amide]

SMILES: CCc1cccc(CC)c1Nc1nc2cc(C(=O)Nc3ccc4cn[nH]c4c3)ccc2[nH]1 [Example 91, 2-(2,6-diethylphenylamino)-3H-benzimidazole-5-carboxylic acid (1H-indazol-6-yl)-amide]
complete responders (CR, 100% reduction in tumor size) ([1]; erlotinib 50 mg/kg): 0/8
partial responders (PR, greater than 50% reduction in tumor size) ([1]; erlotinib 50 mg/kg): 0/8

SMILES: Nc1ccn([C@@H]2O[C@H](CO)[C@@H](O)C2(F)F)c(=O)n1 [Gemcitabine, reference compound]
Median Tumor Size [3, 4]: 120 mg
Median Tumor Size ([3]; day 10 of study): 144 mg
Median Tumor Size ([3]; day 13 of study): 144 mg
Median Tumor Size ([3]; day 16 of study): 153 mg
Median Tumor Size ([3]; day 20 of study): 221 mg
inhibition of tumor growth relative to vehicle-treated tumors ([3]; day 23, Example 88 10 mg/kg, gemcitabine 120 mg/kg): 60%
Median Tumor Size ([3]; day 23 of study): 246 mg
Median Tumor Size ([3]; day 27 of study): 336 mg
Median Tumor Size ([3]; day 30 of study): 472 mg
Median Tumor Size ([3]; day 34 of study): 675 mg
Median Tumor Size ([3]; day 37 of study): 824 mg
complete responders (CR, 100% reduction in tumor size) [3, 5]: 0/8
partial responders (PR, greater than 50% reduction in tumor size) [3, 5]: 0/8
Median Tumor Size ([3]; day 42 of study): 988 mg
